Measured values published in PMC7044277 (Nature Communications, 2020).
“And” between values parts separate entries of the source, which are not always exact repeats. Equal values may be shown once. Read-outs that look alike come from different tables or passages of the source.

Columns and labels:
[1] = molecular target: T1, DRD4 (D4.4 variant) wild-type (Homo sapiens, UniProt P21917); test: Radioligand competition binding, [3H]-N-methylspiperone
T1 sequence (P21917 1-419): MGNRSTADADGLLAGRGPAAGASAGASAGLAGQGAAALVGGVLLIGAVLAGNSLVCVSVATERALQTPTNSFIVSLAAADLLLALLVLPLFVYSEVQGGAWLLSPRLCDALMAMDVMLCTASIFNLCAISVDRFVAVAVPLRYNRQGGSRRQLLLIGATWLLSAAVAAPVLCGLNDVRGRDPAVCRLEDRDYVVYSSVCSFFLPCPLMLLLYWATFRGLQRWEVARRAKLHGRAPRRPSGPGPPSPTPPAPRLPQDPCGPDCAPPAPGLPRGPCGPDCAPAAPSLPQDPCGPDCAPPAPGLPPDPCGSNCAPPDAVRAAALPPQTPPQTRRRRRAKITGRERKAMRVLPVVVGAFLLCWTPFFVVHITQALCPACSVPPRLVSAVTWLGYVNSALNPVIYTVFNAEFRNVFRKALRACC

[2] = molecular target: T2, DRD2 F1103.28A (Homo sapiens, UniProt P14416, F110A); test: β-arrestin2 recruitment (Tango), mutant; format: cell-based; design: expressed in transfected cells; host or cells: HEK293T (ATCC CRL-11268)
T2 sequence (P14416 whole entry F110A): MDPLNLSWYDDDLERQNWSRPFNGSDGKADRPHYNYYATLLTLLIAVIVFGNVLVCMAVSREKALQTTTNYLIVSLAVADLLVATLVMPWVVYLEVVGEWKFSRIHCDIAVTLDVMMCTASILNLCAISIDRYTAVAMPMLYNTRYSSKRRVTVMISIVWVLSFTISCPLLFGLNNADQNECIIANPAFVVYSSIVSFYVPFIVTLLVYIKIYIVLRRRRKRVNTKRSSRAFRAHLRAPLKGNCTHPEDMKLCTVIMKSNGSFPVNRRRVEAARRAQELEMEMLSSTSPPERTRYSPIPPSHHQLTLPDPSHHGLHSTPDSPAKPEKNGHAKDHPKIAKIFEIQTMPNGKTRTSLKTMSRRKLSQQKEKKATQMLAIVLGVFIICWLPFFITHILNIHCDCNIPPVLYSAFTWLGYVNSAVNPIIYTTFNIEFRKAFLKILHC

[3] = molecular target: DRD3 wild-type (Homo sapiens, UniProt P35462); test: Radioligand competition binding, [3H]-N-methylspiperone
Chain of DRD3 wild-type (P35462 whole entry): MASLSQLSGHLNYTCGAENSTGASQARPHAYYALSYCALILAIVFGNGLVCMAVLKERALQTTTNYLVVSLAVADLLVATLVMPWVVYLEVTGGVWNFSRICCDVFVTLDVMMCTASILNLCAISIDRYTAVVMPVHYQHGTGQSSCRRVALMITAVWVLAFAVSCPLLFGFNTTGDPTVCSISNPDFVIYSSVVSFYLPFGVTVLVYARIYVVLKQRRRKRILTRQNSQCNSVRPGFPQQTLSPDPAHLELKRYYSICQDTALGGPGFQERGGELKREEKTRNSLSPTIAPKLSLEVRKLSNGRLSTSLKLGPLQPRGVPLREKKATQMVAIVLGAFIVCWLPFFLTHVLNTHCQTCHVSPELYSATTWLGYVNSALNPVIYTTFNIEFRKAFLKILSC

[4] = molecular target: T3, DRD2 (D2 long receptor) (Homo sapiens, UniProt P14416); test: Gαi/o-mediated cAMP inhibition (GloSensor split-luciferase cAMP reporter), HEK293T; format: cell-based; conditions: for response, Fig_S11d dose-response source data: replicate values; for Emax: HEK-293T, read-out: Emax relative to quinpirole response;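 for all read-outs here: compounds applied 15 min at room temperature, then luciferin plus 400 nM isoproterenol to raise cAMP through endogenous β2-adrenergic receptors, luminescence read 15 min later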
T3 sequence (P14416 whole entry): as the sequence (P14416 whole entry F110A) above, with A110F counted along it

[5] = molecular target: DRD2 (D2 long receptor) wild-type (Homo sapiens, UniProt P14416); test: Radioligand competition binding, [3H]-N-methylspiperone, HEK293T membranes
Chain of DRD2 (D2 long receptor) wild-type (P14416 whole entry): as the sequence (P14416 whole entry F110A) above, with A110F counted along it

[6] = molecular target: T4, DRD2 F1103.28L (Homo sapiens, UniProt P14416, F110L); test: β-arrestin2 recruitment (Tango), mutant; format: cell-based
T4 construct: expressed in transfected cells; host or cells: HEK293T (ATCC CRL-11268)
T4 sequence (P14416 whole entry F110L): as the sequence (P14416 whole entry F110A) above, with A110L counted along it

[7] = molecular target: T5, DRD4 (D4.4 variant) (Homo sapiens, UniProt P21917); test: β-arrestin2 recruitment (Tango); format: cell-based
T5 sequence (P21917 1-419): T1 sequence (P21917 1-419)

[8] = molecular target: T5, DRD4 (D4.4 variant); test: Gαi/o-mediated cAMP inhibition (GloSensor); format: cell-based
[9] = molecular target: T6, DRD3 F1063.28A (Homo sapiens, UniProt P35462, F106A); test: biochemical; format: binding
T6 sequence (P35462 whole entry F106A): as the sequence (P35462 whole entry) above, with F106A counted along it

[10] = molecular target: T7, DRD3 (Homo sapiens, UniProt P35462); test: β-arrestin2 recruitment (Tango); format: cell-based; conditions: for Emax: read-out: Emax relative to quinpirole response
T7 sequence (P35462 whole entry): as the sequence (P35462 whole entry) above

[11] = molecular target: T6, DRD3 F1063.28A; test: cell-based; format: cell-based
[12] = molecular target: T2, DRD2 F1103.28A; test: Gαi/o-mediated cAMP inhibition (GloSensor), mutant; format: cell-based; design: expressed in transfected cells; host or cells: HEK293T (ATCC CRL-11268)
[13] = molecular target: T2, DRD2 F1103.28A; format: binding; design: expressed in transfected cells; host or cells: HEK293T (ATCC CRL-11268)
[14] = molecular target: T4, DRD2 F1103.28L; test: Gαi/o-mediated cAMP inhibition (GloSensor), mutant; format: cell-based
[15] = molecular target: T3, DRD2 (D2 long receptor); test: β-arrestin2 recruitment (Tango), HTLA cells; format: cell-based; conditions: for response, Fig_S11e dose-response source data: replicate values; for Emax: HTLA, read-out: Emax relative to quinpirole response
[16] = molecular target: T8, DRD2 S1975.46G (Homo sapiens, UniProt P14416, S197G); test: Gαi/o-mediated cAMP inhibition (GloSensor), mutant; format: cell-based; conditions: DRD2 Ser197^5.46Gly; G-protein assay
T8 construct: expressed in transfected cells; host or cells: HEK293T (ATCC CRL-11268)
T8 sequence (P14416 whole entry S197G): as the sequence (P14416 whole entry F110A) above, with A110F, S197G counted along it

[17] = molecular target: T7, DRD3; test: Gαi/o-mediated cAMP inhibition (GloSensor); format: cell-based
[18] = read-out: Emax relative to quinpirole response

## CCOc1cccc2cc(C(C)NCC3(O)CCCCCCC3)oc12 (stereo not drawn) [O4LE8]
[1]; DRD4, [3H]-methylspiperone (0.8-1.0 nM), read-out: Ki
  Ki: 3470 nM
[2]
  EC50: > 10000 nM
[3]; DRD3 wild-type, read-out: pKi ± SEM (converted)
  Ki: 126 nM
[4]; DRD2, agonist, Gαi/o-mediated cAMP inhibition, read-out: EC50 ± SEM
  EC50: 25.1 ± 4.15 nM
[4]; Log[Drug] -6.52
  response, Fig_S11d dose-response source data: 81.714
[4]; Log[Drug] -7
  response, Fig_S11d dose-response source data: 60.3486 and 66.6804 and 72.7008 and 60.4684 and 68.6286 and 77.0139 and 66.1563 and 80.9789 and 74.7009
[4]; Log[Drug] -7.52
  response, Fig_S11d dose-response source data: 64.1546 and 42.5815 and 54.9164 and 48.6839 and 50.89 and 54.6944 and 53.231 and 58.2356 and 61.6484
[4]; Log[Drug] -8
  response, Fig_S11d dose-response source data: 30.3505 and 38.7582 and 38.4468 and 27.6925 and 25.4414 and 37.7886 and 33.6203 and 36.6384 and 38.4211
[4]; Log[Drug] -8.52
  response, Fig_S11d dose-response source data: 18.8806 and 26.4753 and 29.6239 and 29.8085 and 24.7211 and 36.5506 and 30.7552 and 20.988 and 25.8907
[4]; Log[Drug] -9
  response, Fig_S11d dose-response source data: 10.6977 and 6.477 and 22.1503 and -4.7682 and 5.553 and 28.1427 and 15.0029 and 22.6689 and 22.3633
[4]; Log[Drug] -9.52
  response, Fig_S11d dose-response source data: 13.483 and 14.7978 and 22.2541 and 0.3305 and -1.0989 and 21.5583 and 10.5969 and 17.6134 and 23.573
[4]; Log[Drug] -10
  response, Fig_S11d dose-response source data: 5.075 and 27.3403 and 11.8049 and -5.4661 and -6.0063 and 15.8293 and -4.1493 and 12.6598 and 11.3991
[4]; Log[Drug] -10.52
  response, Fig_S11d dose-response source data: 26.6829 and 14.6767 and 28.6205 and 3.955 and -0.615 and 13.1617 and 5.592 and 6.484 and 18.0973
[4]; Log[Drug] -11
  response, Fig_S11d dose-response source data: 14.0885 and 21.7351 and 14.8497 and 2.548 and 0.2179 and 18.1479 and 4.5736 and 10.5841 and 33.4421
[4]; Log[Drug] -11.52
  response, Fig_S11d dose-response source data: 14.3134 and 21.1815 and -2.3983 and 1.163 and 10.5955 and 20.3089 and -4.0602 and -1.4624 and 2.396
[4]; Log[Drug] -12
  response, Fig_S11d dose-response source data: -12.3977 and -4.8203 and -3.3671 and -5.6011 and 0.2067 and 18.6656 and 6.267 and -13.7 and 1.135
[4]; DRD2, cAMP inhibition
  Emax: 93.5%
[5]; DRD2, [3H]-methylspiperone (0.8-1.0 nM), read-out: Ki
  Ki: 1440 nM
[6]
  EC50: 83.2 nM
[6]; [18]
  Emax: 12.9%
[7]; DRD4, Tango, read-out: EC50 ± SEM
  EC50: 7720 ± 3420 nM
[7]; read-out: Emax relative to quinpirole response, DRD4, Tango
  Emax: 22.3%
[8]; DRD4, agonist, cAMP inhibition, read-out: EC50 ± SEM
  EC50: > 10000 nM
[9]
  Ki: 209 nM
[9]; DRD3 Phe106^3.28Ala vs wild-type DRD3
  affinity decreased, mutant vs wild type: 1.62 fold
[10]; DRD3, Tango, read-out: EC50 ± SEM
  EC50: 2570 ± 331 nM
[10]; DRD3, Tango
  Emax: 12.6%
[11]
  EC50: > 10000 nM
[12]
  EC50: > 10000 nM
[13]; DRD2 F1103.28A, read-out: pKi ± SEM (converted)
  Ki: 174 nM
[13]; DRD2 Phe110^3.28Ala vs wild-type DRD2
  affinity increase (binding enhanced), mutant vs wild type: 8.47 fold
[14]; DRD2 F1103.28L (b138 head prints DRD2 F1063.28L)
  EC50: 5.14 ± 1.34 nM
[14]; read-out: Emax relative to quinpirole response, DRD2 F1103.28L
  Emax: 79.4%
[15]; DRD2, β-arrestin2 recruitment (Tango), read-out: EC50 ± SEM
  EC50: 958 ± 554 nM
[15]; Log[Drug] -6.52
  response, Fig_S11e dose-response source data: 25.1709
[15]; Log[Drug] -7
  response, Fig_S11e dose-response source data: 14.6742 and 15.2038 and 14.2094 and 15.768 and 13.8247 and 10.963 and 9.8559 and 9.763 and 11.4407
[15]; Log[Drug] -7.52
  response, Fig_S11e dose-response source data: 7.064 and 7.803 and 7.822 and 6.018 and 6.959 and 8.6294 and 5.868 and 6.2292 and 7.2281
[15]; Log[Drug] -8
  response, Fig_S11e dose-response source data: 5.7468 and 5.978 and 6.62 and 5.455 and 5.722 and 6.021 and 5.454 and 5.678 and 6.204
[15]; Log[Drug] -8.52
  response, Fig_S11e dose-response source data: 5.4648 and 5.687 and 6.826 and 4.883 and 5.2931 and 6.0726 and 5.125 and 5.623 and 6.271
[15]; Log[Drug] -9
  response, Fig_S11e dose-response source data: 5.367 and 5.481 and 6.509 and 5.152 and 5.102 and 5.412 and 5.069 and 5.184 and 5.586
[15]; Log[Drug] -9.52
  response, Fig_S11e dose-response source data: 5.23 and 5.307 and 5.645 and 4.9908 and 4.966 and 5.083 and 5.0713 and 4.923 and 5.288
[15]; Log[Drug] -10
  response, Fig_S11e dose-response source data: 5.15 and 5.211 and 5.175 and 4.9 and 4.98 and 4.8838 and 4.832 and 4.97 and 4.906
[15]; Log[Drug] -10.52
  response, Fig_S11e dose-response source data: 5.0534 and 4.953 and 5.08 and 4.774 (2×) and 4.9 and 4.962 and 4.816 and 4.832
[15]; Log[Drug] -11
  response, Fig_S11e dose-response source data: 5.0347 and 4.933 and 5.013 and 4.706 and 4.819 and 4.763 and 4.774 (2×) and 4.732
[15]; Log[Drug] -11.52
  response, Fig_S11e dose-response source data: 4.924 and 5.294 and 5.1115 and 4.785 and 5.303 and 4.761 and 4.741 and 4.765 and 4.928
[15]; Log[Drug] -12
  response, Fig_S11e dose-response source data: 4.887 and 4.896 and 4.876 and 4.741 and 5.073 and 4.844 and 4.843 and 5.092 and 4.723
[15]; DRD2, Tango
  Emax: 54%

## CC(CCc1ccccc1[N+](=O)[O-])NCC1(O)CCCCC1 (stereo not drawn) [O7LE6]
[16]
  agonism after serine to glycine substitution: substantially diminished
[1]; Ki
  Ki: > 10000 nM
[17]
  EC50: 1.96 nM
[17]; [18]
  Emax: 82.7%
[3]
  Ki: 174 nM
[4]
  EC50: 1.13 nM
  Emax: 100%
[5]; Ki
  Ki: 1410 nM
[7]
  EC50: > 10000 nM
[7]; DRD4, Tango
  β-arrestin2 recruitment agonist activity: no DRD4 activity
[8]
  EC50: > 10000 nM
[8]; DRD4, cAMP inhibition
  G protein agonist activity: no DRD4 activity
[10]
  EC50: 117 nM
  Emax: 88.5%
[15]
  EC50: 6.95 nM
  Emax: 85.3%
